Data reported in ChEMBL document CHEMBL4402569.
Active and inactive are the calls of the source. The calls are words filed in the database; no cut-off is given here.

Columns and labels:
[1] = tested on: H5N1 subtype; assay: Antiviral activity against pseudotyped Influenza A virus H5N1 (Goose/Qinghai/59/05) infected in human A549 cells assessed as inhibition of viral replication at 12.5 uM incubated for 48 hrs by luciferase reporter gene assay relative to control; type: functional; details: Goose/Qinghai/59/05, A549, 48 h
[2] = tested on: H5N1 subtype; assay: Antiviral activity against pseudotyped Influenza A virus H5N1 (Goose/Qinghai/59/05) infected in human A549 cells assessed as inhibition of viral replication at incubated for 48 hrs by luciferase reporter gene assay; type: functional, organism-based; details: Goose/Qinghai/59/05, A549, 48 h
[3] = tested on: Influenza A virus; assay: Antiviral activity against Influenza A virus (A/Puerto Rico/8/1934(H1N1)) infected in human A549 cells assessed as decrease in viral titer at 1 uM by standard plaque assay; type: functional, organism-based
[4] = tested on: H5N1 subtype; assay: Antiviral activity against Influenza A virus (A/Viet Nam/1203/2004(H5N1)) infected in human A549 cells assessed as decrease in viral titer at 1 uM by standard plaque assay; type: functional, organism-based
[5] = tested on: Influenza A virus; assay: Antiviral activity against Influenza A virus (A/Puerto Rico/8/1934(H1N1)) infected in MDCK cells incubated for 1 hr and measured after 36 hrs by PR8-PB2 Gaussia luciferase reporter gene assay; type: functional, organism-based
[6] = tested on: H5N1 subtype; assay: Antiviral activity against Influenza A virus (A/Viet Nam/1203/2004(H5N1)) infected in human A549 cells assessed as decrease in viral titer at 20 uM by standard plaque assay; type: functional
[7] = tested on: Influenza A virus; assay: Antiviral activity against Influenza A virus (A/Puerto Rico/8/1934(H1N1)) infected in MDCK cells assessed as combination index at 68 nM incubated for 1 hr and measured after 36 hrs in presence of 156 nM Oseltamivir carboxylate by PR8-NS1 Gaussia luciferase reporter gene assay; type: functional
[8] = tested on: Influenza A virus; assay: Antiviral activity against Influenza A virus (A/Puerto Rico/8/1934(H1N1)) infected in MDCK cells assessed as combination index at 35 nM incubated for 1 hr and measured after 36 hrs in presence of 156 nM Oseltamivir carboxylate by PR8-NS1 Gaussia luciferase reporter gene assay; type: functional
[9] = tested on: Influenza A virus; assay: Antiviral activity against Influenza A virus (A/Puerto Rico/8/1934(H1N1)) infected in MDCK cells incubated for 1 hr and measured after 36 hrs by PR8-NS1 Gaussia luciferase reporter gene assay; type: functional, organism-based
[10] = tested on: Influenza A virus; assay: Antiviral activity against Influenza A virus (A/Puerto Rico/8/1934(H1N1)) infected in MDCK cells assessed as combination index at 49 nM incubated for 1 hr and measured after 36 hrs in presence of 156 nM Oseltamivir carboxylate by PR8-NS1 Gaussia luciferase reporter gene assay; type: functional
[11] = tested on: Influenza A virus; assay: Antiviral activity against Influenza A virus (A/Puerto Rico/8/1934(H1N1)) infected in MDCK cells assessed as combination index at 57 nM incubated for 1 hr and measured after 36 hrs in presence of 156 nM Oseltamivir carboxylate by PR8-NS1 Gaussia luciferase reporter gene assay; type: functional
[12] = tested on: Influenza A virus; assay: Antiviral activity against Influenza A virus (A/Puerto Rico/8/1934(H1N1)) infected in MDCK cells assessed as combination index at 114 nM incubated for 1 hr and measured after 36 hrs in presence of 156 nM Oseltamivir carboxylate by PR8-NS1 Gaussia luciferase reporter gene assay; type: functional
[13] = tested on: Influenza A virus; assay: Antiviral activity against Influenza A virus (A/Puerto Rico/8/1934(H1N1)) infected in MDCK cells assessed as combination index at 83 nM incubated for 1 hr and measured after 36 hrs in presence of 156 nM Oseltamivir carboxylate by PR8-NS1 Gaussia luciferase reporter gene assay; type: functional
[14] = tested on: Influenza A virus; assay: Antiviral activity against Influenza A virus (A/Puerto Rico/8/1934(H1N1)) infected in MDCK cells assessed as combination index at 42 nM incubated for 1 hr and measured after 36 hrs in presence of 156 nM Oseltamivir carboxylate by PR8-NS1 Gaussia luciferase reporter gene assay; type: functional

| SMILES | inhibition at 12.5 µM [1] [%] | EC50 [2] [nM] | EC50 [5] [nM] | also measured |
| --- | --- | --- | --- | --- |
| CC(C)N1CCC(NS(=O)(=O)c2ccc(Cl)cc2Cl)CC1 | 1 |  |  |  |
| CC(C)N1CCC(N(Cc2ccccc2)C(=O)c2c(Cl)cccc2Cl)CC1 | 64 |  |  |  |
| CC(C)N1CCC(C)(NC(=O)c2c(Cl)cccc2Cl)CC1 | 75 |  |  |  |
| CC(C)N1CC[C@H](NC(=O)c2ccc(C(F)(F)F)cc2Cl)[C@H](F)C1 | 99 | 670 | 195 | inhibition [3]: Active; inhibition [4]: Active; inhibition at 20 µM [6]: 100% |
| CC(C)N1CCC(NC(=O)c2ncc(C(F)(F)F)cc2Cl)CC1 | 76 |  |  |  |
| CC(C)N1CCC(NC(=O)c2ccc([N+](=O)[O-])cc2Cl)CC1 | 97 | 720 | 211 |  |
| CC(C)N1CCC(N(C)C(=O)c2c(Cl)cccc2Cl)CC1 | 91 | 4450 | 724 |  |
| CC(C)N1CC2C(C1)C2NC(=O)c1c(Cl)cccc1Cl (configuration not stated) | 61 |  |  |  |
| CC(C)N1CC[C@@H](NC(=O)c2ccc(C(F)(F)F)cc2Cl)[C@H](F)C1 | 99 | 630 | 263 |  |
| CCC(CC)O[C@@H]1C=C(C(=O)O)C[C@H](N)[C@H]1NC(C)=O [OSELTAMIVIR CARBOXYLATE] |  |  |  | CI [7]: 0.51; CI [8]: 1.23; EC30 [9]: 160 nM; EC40 [9]: 229 nM; EC50 [9]: 318 nM; EC60 [9]: 441 nM; EC70 [9]: 629 nM; EC80 [9]: 972 nM; EC90 [9]: 1870 nM; CI [10]: 0.75; CI [11]: 0.61; CI [12]: 0.34; CI [13]: 0.42; CI [14]: 0.94; inhibition [6]: inactive |
| O=C(NC1CCN(C2CCC2)CC1)c1c(Cl)cccc1Cl | 76 |  |  |  |
| O=C(NC1CCN(C2CCCCC2)CC1)c1ccc(C(F)(F)F)cc1Cl | 98 | 910 | 505 |  |
| CC(C)N1CCC(NC(=O)c2c(Cl)cccc2Cl)C(F)(F)C1 (racemic) | 77 |  |  |  |
| CC(C)N1CCC(NC(=O)c2ccccc2C(F)(F)F)CC1 | 31 |  |  |  |
| CO[C@H]1CN(C(C)C)CC[C@H]1NC(=O)c1c(Cl)cccc1Cl | 64 |  |  |  |
| CC(C)(C)N1CCC(NC(=O)c2c(Cl)cccc2Cl)CC1 | 99 | 510 | 113 | inhibition [3]: Active; inhibition [4]: Active; inhibition at 20 µM [6]: 100% |
| CC(C)N1CCC(NC(=O)c2c(Cl)cccc2C(F)(F)F)CC1 | 85 | 5620 | 587 |  |
| CC(C)N1CCCC(NC(=O)c2c(Cl)cccc2Cl)C1 (configuration not stated) | 14 |  |  |  |
